The target of the experiment is TRKA (Homo sapiens (Human), UniProt P04629). The experiment in a line: Isolated TRK enzyme assay (HTRF KinEASE-TK), PV3144 TrkA enzyme assay. It counts as biochemical. Conditions: arithmetic mean where more than one reading. As to the method: Isolated TRK Enzyme assays use the HTRF KinEASE-TK kit (Cisbio Cat#62TK0PEJ) with recombinant His-tagged cytoplasmic domains of each TRK receptor sourced from Invitrogen (see table below). This activity-assay measures the phosphorylation of tyrosine residues within a substrate from the HTRF kit which has been validated by Cisbio for a variety of tyrosine kinases including the TRK receptors.
Chain of TRKA (P04629 441-796): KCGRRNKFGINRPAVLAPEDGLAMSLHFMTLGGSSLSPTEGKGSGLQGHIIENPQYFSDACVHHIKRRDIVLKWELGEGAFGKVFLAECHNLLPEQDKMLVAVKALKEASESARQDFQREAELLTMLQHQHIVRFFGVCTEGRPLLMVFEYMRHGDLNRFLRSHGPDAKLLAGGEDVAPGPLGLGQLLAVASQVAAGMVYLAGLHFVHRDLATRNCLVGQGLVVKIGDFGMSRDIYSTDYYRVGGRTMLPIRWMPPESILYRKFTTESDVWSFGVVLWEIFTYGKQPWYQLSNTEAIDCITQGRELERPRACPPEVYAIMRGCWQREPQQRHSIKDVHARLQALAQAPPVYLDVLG
0.5 mM stock solutions of test compounds are prepared and serially diluted in 100% DMSO. A standard curve using the compound of Example 135 disclosed in WO2005/116035 of 150 uM is also prepared on each test plate. High percentage effect (HPE) is defined by 150 uM (using the compound of Example 135 as disclosed in WO2005/116035) and 0% effect (ZPE) is defined by 100% DMSO. Greiner low volume black plates containing 0.2 ul of serially diluted compound, standard and HPE/ZPE are created using the Bravo nanoliter dispenser.
1× enzyme buffer is prepared from 5× Enzymatic Buffer from the Cisbio KinEASE TK kit using MilliQ water. The buffer is then supplemented with 10 mM MgCI and 2 mM DTT (both from Sigma). In the case of TRKB, the buffer is also supplemented with 125 nM Supplement Enzymatic Buffer (SEB) from the Cisbio kit.
2× FAC of enzyme and 2× FAC ATP diluted in 1× complete enzyme buffer is incubated at room temperature for 20 minutes to preactivate the enzyme. Following this preactivation step, 5 ul/well of enzyme+ATP mix is added using a Multidrop Micro to the assay plate, spotted with 0.2 ul 100% DMSO compound. This is left for 20 mins at room temperature before adding 5 ul of 2 uM TK-substrate-Biotin (from the Cisbio kit) diluted in 1× enzyme buffer (1 uM FAC) using the Multidrop Micro. The reaction is incubated at room temperature for the optimized assay reaction time (see table). The reaction is stopped by adding 10 ul/well HTRF Detection Buffer containing 0.25 uM Streptavidin-XL665 (0.125 uM FAC) and 1:200 TK Antibody-Cryptate using a Multidrop.
After the Detection Reagent addition, plates are covered and incubated at room temperature for 60 minutes. HTRF signal is read using an Envision reader, measured as a ratio of emissions at two different wavelengths, 620 nm and 665 nm. […] Test compound data are expressed as percentage inhibition defined by HPE and ZPE values for each plate. Percentage inhibition in the presence of test compound is plotted against compound concentration on a log scale to determine an IC50 from the resultant sigmoid curve.
Where more than one reading was taken, the arithmetic mean is presented.
Background: In TR-FRET formats the signal depends on donor and acceptor labels being close together.
As to `CC(CO)n1cc(C(=O)c2cncc(NC(=O)Cc3cccc(C(F)(F)F)c3)c2)c2cncc(F)c21` (single isomer, unassigned) [Example 226, N-(5-{[7-fluoro-1-(1-hydroxypropan-2-yl)-1H-pyrrolo[3,2-c]pyridin-3-yl]carbonyl}pyridin-3-yl)-2-[3-(trifluoromethyl)phenyl]acetamide], the IC50 came out at 11.3 nM.

Molecule `CC(CO)n1cc(C(=O)c2cncc(NC(=O)Cn3cc(C(F)(F)F)cn3)c2)c2cncc(F)c21` (single isomer, unassigned) [Example 227, N-(5-{[7-fluoro-1-(1-hydroxypropan-2-yl)-1H-pyrrolo[3,2-c]pyridin-3-yl]carbonyl}pyridin-3-yl)-2-[4-(trifluoromethyl)-1H-pyrazol-1-yl]acetamide] registered an IC50 of 24.3 nM.

Molecule `Cc1cc(C(F)(F)F)nn1CC(=O)Nc1cncc(C(=O)c2cn(C(C)CO)c3c(F)cncc23)c1` (single isomer, unassigned) [Example 228, N-(5-{[7-fluoro-1-(1-hydroxypropan-2-yl)-1H-pyrrolo[3,2-c]pyridin-3-yl]carbonyl}pyridin-3-yl)-2-[5-methyl-3-(trifluoromethyl)-1H-pyrazol-1-yl]acetamide] yielded an IC50 of 18.5 nM.

`CC(CO)n1cc(C(=O)c2cc(NC(=O)Cc3cccc(C(F)(F)F)c3)ccn2)c2cnccc21` (single isomer, unassigned) [Example 229, N-(2-{[1-(1-hydroxypropan-2-yl)-1H-pyrrolo[3,2-c]pyridin-3-yl]carbonyl}pyridin-4-yl)-2-[3-(trifluoromethyl)phenyl]acetamide] displayed an IC50 of 200 nM.

The molecule `Cc1cc(C(F)(F)F)nn1CC(=O)Nc1cncc(C(=O)c2cn(C(C)(C)CO)c3c(F)cncc23)c1` [Example 1, N-{5-[7-Fluoro-1-(2-hydroxy-1,1-dimethyl-ethyl)-1H-pyrrolo[3,2-c]pyridine-3-carbonyl]-pyridin-3-yl}-2-(5-methyl-3-trifluoromethyl-pyrazol-1-yl)-acetamide] gave a concentration for half-maximal inhibition (IC50) of 6.32 nM.

Regarding `CC(C)(CO)n1cc(C(=O)c2cncc(NC(=O)Cn3ccc(C4CC4)n3)c2)c2cncc(F)c21` [Example 2, 2-(3-Cyclopropyl-pyrazol-1-yl)-N-{5-[7-fluoro-1-(2-hydroxy-1,1-dimethyl-ethyl)-1H-pyrrolo[3,2-c]pyridine-3-carbonyl]-pyridin-3-yl}-acetamide], the IC50 was determined as 5.58 nM.

The molecule `CC(C)(CO)n1cc(C(=O)c2cncc(NC(=O)Cc3ccc(Cl)cn3)c2)c2cncc(F)c21` [Example 3, 2-(5-Chloro-pyridin-2-yl)-N-{5-[7-fluoro-1-(2-hydroxy-1,1-dimethyl-ethyl)-1H-pyrrolo[3,2-c]pyridine-3-carbonyl]-pyridin-3-yl}-acetamide] came in with an IC50 of 7.85 nM.

Take `CC(C)(CO)n1cc(C(=O)c2cncc(NC(=O)Cn3cc(C(F)(F)F)cn3)c2)c2cncc(F)c21` [Example 4, N-{5-[7-Fluoro-1-(2-hydroxy-1,1-dimethyl-ethyl)-1H-pyrrolo[3,2-c]pyridine-3-carbonyl]-pyridin-3-yl}-2-(4-trifluoromethyl-pyrazol-1-yl)-acetamide]: inhibition was half-maximal at 5.33 nM (IC50).

Turning to `CC(C)(CO)n1cc(C(=O)c2cncc(NC(=O)Cc3cccc(C(F)(F)F)c3)c2)c2cncc(F)c21` [Example 5, N-{5-[7-Fluoro-1-(2-hydroxy-1,1-dimethyl-ethyl)-1H-pyrrolo[3,2-c]pyridine-3-carbonyl]-pyridin-3-yl}-2-(3-trifluoromethyl-phenyl)-acetamide], half-maximal inhibition (IC50) required 4.41 nM.

In turn, `CC(C)(CO)n1cc(C(=O)c2cncc(NC(=O)Cc3ccc(C(F)(F)F)cc3)c2)c2cncc(F)c21` [Example 7, N-{5-[7-Fluoro-1-(2-hydroxy-1,1-dimethyl-ethyl)-1H-pyrrolo[3,2-c]pyridine-3-carbonyl]-pyridin-3-yl}-2-(4-trifluoromethyl-phenyl)-acetamide] came in with an IC50 of 6.61 nM.

On to `CC(C)(CO)n1cc(C(=O)c2cncc(NC(=O)Cc3ccc(Cl)cn3)c2)c2cnccc21` [Example 8, 2-(5-Chloro-pyridin-2-yl)-N-{5-[1-(2-hydroxy-1,1-dimethyl-ethyl)-1H-pyrrolo[3,2-c]pyridine-3-carbonyl]-pyridin-3-yl}-acetamide], for which the IC50 amounted to 38.5 nM.

For `CC(C)(CO)n1cc(C(=O)c2cc(NC(=O)Cc3ccc(C#N)cc3)ccn2)c2cnccc21` [Example 9, 2-(4-cyanophenyl)-N-(2-{[1-(1-hydroxy-2-methylpropan-2-yl)-1H-pyrrolo[3,2-c]pyridin-3-yl]carbonyl}pyridin-4-yl)acetamide], the IC50 turned out to be 97.8 nM.

As to `CC(C)(CO)n1cc(C(=O)c2cc(NC(=O)Cn3ccc(C(F)(F)F)n3)ccn2)c2cnccc21` [Example 10, N-(2-{[1-(1-hydroxy-2-methylpropan-2-yl)-1H-pyrrolo[3,2-c]pyridin-3-yl]carbonyl}pyridin-4-yl)-2-[3-(trifluoromethyl)-1H-pyrazol-1-yl]acetamide], half-maximal inhibition (IC50) required 14 nM.

`CC(C)(CO)n1cc(C(=O)c2cncc(NC(=O)Cn3cc(C(F)(F)F)nn3)c2)c2cnccc21` [Example 13, N-(5-{[1-(1-hydroxy-2-methylpropan-2-yl)-1H-pyrrolo[3,2-c]pyridin-3-yl]carbonyl}pyridin-3-yl)-2-[4-(trifluoromethyl)-1H-1,2,3-triazol-1-yl]acetamide]: the concentration for half-maximal inhibition (IC50) turned out to be 9.86 nM.

On to `CC(C)c1cn(CC(=O)Nc2cncc(C(=O)c3cn(C(C)(C)CO)c4ccncc34)c2)nn1` [Example 14, N-(5-{[1-(1-hydroxy-2-methylpropan-2-yl)-1H-pyrrolo[3,2-c]pyridin-3-yl]carbonyl}pyridin-3-yl)-2-[4-(propan-2-yl)-1H-1,2,3-triazol-1-yl]acetamide], for which the concentration for half-maximal inhibition (IC50) stood at 9.89 nM.

Molecule `CC(C)(CO)n1cc(C(=O)c2cncc(NC(=O)Cc3ccc(F)cn3)c2)c2cnccc21` [Example 16, 2-(5-fluoropyridin-2-yl)-N-(5-{[1-(1-hydroxy-2-methylpropan-2-yl)-1H-pyrrolo[3,2-c]pyridin-3-yl]carbonyl}pyridin-3-yl)acetamide] returned an IC50 of 18.2 nM.

The molecule `Cc1oc(C2CC2)nc1CC(=O)Nc1cncc(C(=O)c2cn(C(C)C)c3ccncc23)c1` [Example 19, 2-(2-cyclopropyl-5-methyl-1,3-oxazol-4-yl)-N-(5-{[1-(propan-2-yl)-1H-pyrrolo[3,2-c]pyridin-3-yl]carbonyl}pyridin-3-yl)acetamide] registered an IC50 of 26.4 nM.

Take `CC(C)n1cc(C(=O)c2cncc(NC(=O)Cc3nc(C4CC4)oc3C3CC3)c2)c2cnccc21` [Example 20, 2-(2,5-dicyclopropyl-1,3-oxazol-4-yl)-N-(5-{[1-(propan-2-yl)-1H-pyrrolo[3,2-c]pyridin-3-yl]carbonyl}pyridin-3-yl)acetamide]: the IC50 was 31.7 nM.

With `CC(C)n1cc(C(=O)c2cncc(NC(=O)Cn3ccc(C(F)(F)F)n3)c2)c2cnccc21` [Example 21, N-(5-{[1-(propan-2-yl)-1H-pyrrolo[3,2-c]pyridin-3-yl]carbonyl}pyridin-3-yl)-2-[3-(trifluoromethyl)-1H-pyrazol-1-yl]acetamide], the IC50 came to 27.1 nM.

`CC(C)n1cc(C(=O)c2cncc(NC(=O)Cc3ccc(Cl)cn3)c2)c2cnccc21` [Example 22, 2-(5-chloropyridin-2-yl)-N-(5-{[1-(propan-2-yl)-1H-pyrrolo[3,2-c]pyridin-3-yl]carbonyl}pyridin-3-yl)acetamide] showed an IC50 of 9.64 nM.

`CC(C)n1cc(C(=O)c2cncc(NC(=O)Cc3ccc(F)cn3)c2)c2cnccc21` [Example 23, 2-(5-fluoropyridin-2-yl)-N-(5-{[1-(propan-2-yl)-1H-pyrrolo[3,2-c]pyridin-3-yl]carbonyl}pyridin-3-yl)acetamide] returned an IC50 of 192 nM.

In turn, `Cc1nc(CC(=O)Nc2cncc(C(=O)c3cn(C(C)C)c4ccncc34)c2)c(C2CC2)o1` [Example 24, 2-(5-cyclopropyl-2-methyl-1,3-oxazol-4-yl)-N-(5-{[1-(propan-2-yl)-1H-pyrrolo[3,2-c]pyridin-3-yl]carbonyl}pyridin-3-yl)acetamide] displayed an IC50 of 124 nM.

Molecule `Cc1cnn(CC(=O)Nc2cncc(C(=O)c3cn(C(C)C)c4ccncc34)c2)c1` [Example 25, 2-(4-methyl-1H-pyrazol-1-yl)-N-(5-{[1-(propan-2-yl)-1H-pyrrolo[3,2-c]pyridin-3-yl]carbonyl}pyridin-3-yl)acetamide] gave an IC50 of 21.4 nM.

As to `CC(C)n1cc(C(=O)c2cncc(NC(=O)Cn3ccc(C4CC4)n3)c2)c2cnccc21` [Example 26, 2-(3-cyclopropyl-1H-pyrazol-1-yl)-N-(5-{[1-(propan-2-yl)-1H-pyrrolo[3,2-c]pyridin-3-yl]carbonyl}pyridin-3-yl)acetamide], the IC50 came to 108 nM.

As a reminder, the IC50 is the concentration needed to halve the response being measured. A high value points to weaker potency in that assay.

For the origin of these results see patent US9163021B2, “Pyrrolo[3,2-c]pyridine tropomyosin-related kinase inhibitors” (Pfizer Limited, priority 2012, dated 2015).
